# According to patent US20240092835A1, “NOVEL PEPTIDES CAPABLE OF ALTERING NK CELL ACTIVITY” (Massachusetts Institute of Technology, priority 2022, published 2024):
# Where no end group is shown, it is not given here.
# How the values were obtained:
# NKG2A−/NKG2C− NK cells = experiment: NK cell activation markers in control NKG2A-/NKG2C- NK cells incubated with peptide and K562 expressing HLA-E; assay type: cell-based, human; conditions: Trial 6
# Procedure, shortened: (§1)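 K562 + HLA-E, pulsed with human/CMV proteome peptides → incubated with sorted NK subsets → surface marker staining, % positive cells. Increase = activation; decrease = inhibition.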
# CD94/NKG2A = CD94/NKG2A (Homo sapiens, UniProt P26715+Q13241); experiment: Steady-state surface plasmon resonance of peptide-HLA-E complex with CD94/NKG2A; assay type: binding; conditions: for Binding of peptide-HLA-E complexes to CD94/NKG2A normalized to a theoretical Rmax: steady-state SPR
# Chain of CD94/NKG2A (P26715 94-233 limits assumed): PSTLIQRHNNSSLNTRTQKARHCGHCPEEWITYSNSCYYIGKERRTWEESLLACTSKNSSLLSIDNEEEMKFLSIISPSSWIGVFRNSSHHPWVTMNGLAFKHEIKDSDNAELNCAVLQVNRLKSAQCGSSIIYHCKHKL
# Chain of CD94/NKG2A (Q13241 32-179 limits assumed): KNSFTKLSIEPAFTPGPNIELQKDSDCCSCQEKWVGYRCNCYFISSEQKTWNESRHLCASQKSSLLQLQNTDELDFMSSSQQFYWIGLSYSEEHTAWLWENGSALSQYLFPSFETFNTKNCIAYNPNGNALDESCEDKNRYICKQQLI
# Method: Binding affinity of novel peptides linked to HLA-E was determined using surface plasmon resonance (SPR), a methodology used to study protein-protein interactions (Tables 15-19). The peptide-HLA-E complex (generated as a single chain trimer) was immobilized on the sensor chip surface and CD94/NKG2A or CD94/NKG2C were flowed over. Steady-state surface plasmon resonance experiments were performed with a Biacore T200 instrument. CD94/NKG2x in HBS-EP+ buffer was injected as analyte in a concentration range of 0.1 μM to 102.4 μM and flow rate of 10 μL/min at 25° C. Data was fit with Prism 9.4 (GraphPad Software Inc; San Diego CA) to a “one site, specific binding” model. Series S CM5 chips were coupled to neutravidin and utilized. Biotinylated pMHC was immobilized at approximately 400 RU. KD values calculated by Biacore software are reported. Rmax, fit values were calculated by Biacore software. Rmax, theoretical values were calculated using the analyte/ligand mass ratio (0.66) multiplied by the amount of ligand coupled to the chip.
# NKG2A−/NKG2C+ NK cells = experiment: NK cell activation markers in NKG2A-/NKG2C+ NK cells incubated with peptide and K562 expressing HLA-E (activation); assay type: cell-based, human; conditions: for effect on NKG2A−/NKG2C+ NK cell activation (in words): K562 expressing HLA-E, CD107a, IFNG, TNF, CCL3; for percentage of CCL3+ NK cells / percentage of CD107+ NK cells / percentage of IFNG+ NK cells / percentage of TNF+ NK cells: NKG2A-/NKG2C+ NK cells, K562/HLA-E
# Procedure, shortened: as §1
sequence,measurement,setting,value
"TGPWRSLWI [human3, TGPWRSLWI]",percentage TNF+ NK cells,NKG2A−/NKG2C− NK cells,4.18%
same,percentage of IFNG+ NK cells,NKG2A−/NKG2C− NK cells,8.37%
same,binding of peptide-HLA-E complex to CD94/NKG2A normalized to a fitted Rmax,CD94/NKG2A; CD94/NKG2A concentration 0 μM,0.013
same,binding of peptide-HLA-E complex to CD94/NKG2A normalized to a fitted Rmax,CD94/NKG2A; CD94/NKG2A concentration 0.1 μM,0.015
same,binding of peptide-HLA-E complex to CD94/NKG2A normalized to a fitted Rmax,CD94/NKG2A; CD94/NKG2A concentration 0.2 μM,0.019
same,binding of peptide-HLA-E complex to CD94/NKG2A normalized to a fitted Rmax,CD94/NKG2A; CD94/NKG2A concentration 0.4 μM,0.030
same,binding of peptide-HLA-E complex to CD94/NKG2A normalized to a fitted Rmax,CD94/NKG2A; CD94/NKG2A concentration 0.8 μM,0.051
same,binding of peptide-HLA-E complex to CD94/NKG2A normalized to a fitted Rmax,CD94/NKG2A; CD94/NKG2A concentration 1.6 μM,0.086
same,binding of peptide-HLA-E complex to CD94/NKG2A normalized to a fitted Rmax,CD94/NKG2A; CD94/NKG2A concentration 3.2 μM,0.145
same,binding of peptide-HLA-E complex to CD94/NKG2A normalized to a fitted Rmax,CD94/NKG2A; CD94/NKG2A concentration 6.4 μM,0.231
same,binding of peptide-HLA-E complex to CD94/NKG2A normalized to a fitted Rmax,CD94/NKG2A; CD94/NKG2A concentration 12.8 μM,0.336
same,binding of peptide-HLA-E complex to CD94/NKG2A normalized to a fitted Rmax,CD94/NKG2A; CD94/NKG2A concentration 25.6 μM,0.472
same,binding of peptide-HLA-E complex to CD94/NKG2A normalized to a fitted Rmax,CD94/NKG2A; CD94/NKG2A concentration 51.2 μM,0.639
same,binding of peptide-HLA-E complex to CD94/NKG2A normalized to a fitted Rmax,CD94/NKG2A; CD94/NKG2A concentration 102.4 μM,0.827
same,Binding of peptide-HLA-E complexes to CD94/NKG2A normalized to a theoretical Rmax,CD94/NKG2A; CD94/NKG2A analyte concentration 0.000 μM,0.004
same,Binding of peptide-HLA-E complexes to CD94/NKG2A normalized to a theoretical Rmax,CD94/NKG2A; CD94/NKG2A analyte concentration 0.100 μM,0.005
same,Binding of peptide-HLA-E complexes to CD94/NKG2A normalized to a theoretical Rmax,CD94/NKG2A; CD94/NKG2A analyte concentration 0.200 μM,0.006
same,Binding of peptide-HLA-E complexes to CD94/NKG2A normalized to a theoretical Rmax,CD94/NKG2A; CD94/NKG2A analyte concentration 0.400 μM,0.009
same,Binding of peptide-HLA-E complexes to CD94/NKG2A normalized to a theoretical Rmax,CD94/NKG2A; CD94/NKG2A analyte concentration 0.800 μM,0.015
same,Binding of peptide-HLA-E complexes to CD94/NKG2A normalized to a theoretical Rmax,CD94/NKG2A; CD94/NKG2A analyte concentration 1.600 μM,0.026
same,Binding of peptide-HLA-E complexes to CD94/NKG2A normalized to a theoretical Rmax,CD94/NKG2A; CD94/NKG2A analyte concentration 3.200 μM,0.044
same,Binding of peptide-HLA-E complexes to CD94/NKG2A normalized to a theoretical Rmax,CD94/NKG2A; CD94/NKG2A analyte concentration 6.400 μM,0.070
same,Binding of peptide-HLA-E complexes to CD94/NKG2A normalized to a theoretical Rmax,CD94/NKG2A; CD94/NKG2A analyte concentration 12.800 μM,0.102
same,Binding of peptide-HLA-E complexes to CD94/NKG2A normalized to a theoretical Rmax,CD94/NKG2A; CD94/NKG2A analyte concentration 25.600 μM,0.143
same,Binding of peptide-HLA-E complexes to CD94/NKG2A normalized to a theoretical Rmax,CD94/NKG2A; CD94/NKG2A analyte concentration 51.200 μM,0.194
same,Binding of peptide-HLA-E complexes to CD94/NKG2A normalized to a theoretical Rmax,CD94/NKG2A; CD94/NKG2A analyte concentration 102.400 μM,0.250
same,effect on NKG2A−/NKG2C+ NK cell activation (in words),NKG2A−/NKG2C+ NK cells; listed as SEQ ID NO. 2,activate
same,effect on NKG2A−/NKG2C+ NK cell activation (in words),NKG2A−/NKG2C+ NK cells; listed as h3,activated
same,percentage of CCL3+ NK cells,NKG2A−/NKG2C+ NK cells; Trial 1,60.9%
same,percentage of CD107+ NK cells,NKG2A−/NKG2C+ NK cells; Trial 1,50.7%
same,percentage of IFNG+ NK cells,NKG2A−/NKG2C+ NK cells; Trial 1,27.8%
same,percentage of TNF+ NK cells,NKG2A−/NKG2C+ NK cells; Trial 1,19.1%
same,percentage of CCL3+ NK cells,NKG2A−/NKG2C+ NK cells; Trial 2,75.8%
same,percentage of CD107+ NK cells,NKG2A−/NKG2C+ NK cells; Trial 2,63.4%
same,percentage of IFNG+ NK cells,NKG2A−/NKG2C+ NK cells; Trial 2,36.4%
same,percentage of TNF+ NK cells,NKG2A−/NKG2C+ NK cells; Trial 2,24.8%
same,percentage of CCL3+ NK cells,NKG2A−/NKG2C+ NK cells; Trial 3,75.7%
same,percentage of CD107+ NK cells,NKG2A−/NKG2C+ NK cells; Trial 3,73.9%
same,percentage of IFNG+ NK cells,NKG2A−/NKG2C+ NK cells; Trial 3,55.4%
same,percentage of TNF+ NK cells,NKG2A−/NKG2C+ NK cells; Trial 3,47.1%
same,percentage of CCL3+ NK cells,NKG2A−/NKG2C+ NK cells; Trial 4,64.5%
same,percentage of CD107+ NK cells,NKG2A−/NKG2C+ NK cells; Trial 4,62.3%
same,percentage of IFNG+ NK cells,NKG2A−/NKG2C+ NK cells; Trial 4,46.9%
same,percentage of TNF+ NK cells,NKG2A−/NKG2C+ NK cells; Trial 4,37.4%
same,percentage of CCL3+ NK cells,NKG2A−/NKG2C+ NK cells; Trial 5,65.7%
same,percentage of CD107+ NK cells,NKG2A−/NKG2C+ NK cells; Trial 5,61%
same,percentage of IFNG+ NK cells,NKG2A−/NKG2C+ NK cells; Trial 5,43.5%
same,percentage of TNF+ NK cells,NKG2A−/NKG2C+ NK cells; Trial 5,37.7%
same,percentage of CCL3+ NK cells,NKG2A−/NKG2C+ NK cells; Trial 6,46%
same,percentage of CD107+ NK cells,NKG2A−/NKG2C+ NK cells; Trial 6,39.5%
same,percentage of IFNG+ NK cells,NKG2A−/NKG2C+ NK cells; Trial 6,23.3%
same,percentage of TNF+ NK cells,NKG2A−/NKG2C+ NK cells; Trial 6,15.8%
